Test results reported in US9480259B2, “Pyrazolopyrans having herbicidal and pharmaceutical properties” (BASF SE, priority 2012, dated 2016).

Target: Arabidopsis thaliana SHMT
Test: SHMT activity assay (ED50 SHMT), coupled with N5,N10-CH2-THF dehydrogenase, NADH at 340 nm
Format: biochemical
Protocol: Determination of the ED50 SHMT was carried out as described hereinunder.
Purification of Arabidopsis thaliana SHMT
The following buffers were used during the purification protocol:
Buffer A (Lysis and Wash Buffer): • 20 mM Na-Phosphat (pH 7,4) • 500 mM NaCI • 40 mM Imidazole • 1.0 mM L-Serine • 0.5 mM Pyridoxal-5-phosphate • 0.5 mM DTT
Buffer B (Elution Buffer): • 20 mM Na-Phosphat (pH 7,4) • 500 mM NaCl • 250 mM Imidazole • 1.0 mM L-Serine • 0.5 mM Pyridoxal-5-phosphate • 0.5 mM DTT
All procedures were conducted at 4° C. or on ice. Pellets were suspended in Buffer A containing 1 mg/ml DNAse +Complete EDTA-free protease inhibitor tablet. Cells were lysed using sonication or a French Press device, using standard settings. Lysis was centrifuged at 40000×g for 25 minutes. The supernatant was filtered (0.22 μM) before loading onto a Ni-NTA column.
A gravity flow column containing Ni-NTA resin was equilibrated with 10 CV Buffer A and loaded with filtered cell lysate. The column was then washed with 10 CV Buffer A. Elution was afforded using Buffer B and collected manually as mini-factions. EDTA was added after elution to a final concentration of 1 mM. Fractions were pooled on the basis of the correct band for SHMT visualised via SDS-PAGE and staining.
SHMT Assay Buffer: • 50 mM KH2PO4 (pH 7,4) • 2.0 mM NAD+ • 7.5 mM DTT • 0.3 mM Tetrahydrofolic acid • 4% DMSO
Reaction Start: 20 mM L-Serine
The rate of N5,N10-CH2-THF formation catalyzed by SHMT was monitored at 340 nm by coupling with excess N5,N10-CH2-THF dehydrogenase, which converts NAD+to NADH. Reactions were initiated by adding 20 mM L-Serine. Inhibition of initial velocity was determined by adding various inhibitors of the SHMT reaction and monitored as described. Reactions were measured in a Bio Tek micro titer plate reader following the change in absorption with the formation of NADH for 30 mimnutes.

[1] = Table 2, values given as upper bounds
[2] = Table 2, Arabidopsis thaliana SHMT enzyme assay, values given as upper bounds
[3] = inhibition of initial velocity of Arabidopsis thaliana SHMT

| SMILES | EC50 [1] [nM] | also measured |
| --- | --- | --- |
| CCC1(c2cccc(F)c2)C(C#N)=C(N)Oc2[nH]nc(C)c21 (racemic) [Compound 2.9.] | < 1000 | – |
| CCC1(c2ccc(F)c(Br)c2)C(C#N)=C(N)Oc2[nH]nc(C)c21 (racemic) [Compound 2.13.] | < 100 | – |
| CCC1(c2ccc(OC(C)(C)C)cc2)C(C#N)=C(N)Oc2[nH]nc(C)c21 (racemic) [Compound 2.27.] | < 10000 | – |
| CCC1(c2cccc(C)c2)C(C#N)=C(N)Oc2[nH]nc(C)c21 (racemic) [Compound 2.42.] | < 10000 | – |
| CCOC(=O)COc1ccc(C2(CC)C(C#N)=C(N)Oc3[nH]nc(C)c32)cc1[N+](=O)[O-] (racemic) [Compound 2.43.] | < 1000 | – |
| CCCCC1(c2cccc(Cl)c2)C(C#N)=C(N)Oc2[nH]nc(C)c21 (racemic) [Compound 2.91.] | < 10000 | – |
| CCCCC1(c2cc(Cl)cc(Cl)c2)C(C#N)=C(N)Oc2[nH]nc(C)c21 (racemic) [Compound 2.92.] | < 10000 | – |
| CCC1(c2cccc(C(F)(F)F)c2)C(C#N)=C(N)Oc2[nH]nc(COC)c21 (racemic) [Compound 2.97.] | < 10000 | – |
| CCCc1n[nH]c2c1C(CC)(c1cccc(C(F)(F)F)c1)C(C#N)=C(N)O2 (racemic) [Compound 2.99.] | < 10000 | – |
| Cc1n[nH]c2c1C(c1ccc(OC(F)(F)F)cc1)(C(C)C)C(C#N)=C(N)O2 (racemic) [Compound 2.145.] | < 1000 | – |
| N#CC1=C(N)Oc2[nH]nc(C3CC3)c2C1(c1cc(Cl)cc(Cl)c1)C1CCC1 (racemic) [Compound 2.156.] | < 100 | – |
| CCC1(c2ccc(Oc3ccccc3)cc2)C(C#N)=C(N)Oc2[nH]nc(C(C)C)c21 (racemic) [Compound 2.160.] | < 10000 | – |
| Cc1n[nH]c2c1C(c1cc(Cl)cc(Oc3ccc(Cl)cc3)c1)(C1CC1)C(C#N)=C(N)O2 (racemic) [Compound 2.342] | – | EC50 [2]: < 10 nM |
| Cc1n[nH]c2c1C(c1cc(Cl)cc(Oc3cccc(Cl)c3)c1)(C1CC1)C(C#N)=C(N)O2 (racemic) [Compound 2.347] | – | EC50 [2]: < 10 nM |
| Cc1n[nH]c2c1C(c1cc(Cl)cc(C#N)c1)(C1(F)CC1)C(C#N)=C(N)O2 (racemic) [Compound 2.379] | – | EC50 [2]: < 10 nM |
| Cc1n[nH]c2c1C(c1ccc(-c3ccsc3)s1)(C1CCC1)C(C#N)=C(N)O2 (racemic) [Compound 4.21] | – | EC50 [3]: < 10 nM |
| COc1ccc2cc(C3(C4(F)CC4)C(C#N)=C(N)Oc4[nH]nc(C)c43)ccc2c1 (racemic) [Compound 4.40] | – | EC50 [3]: < 10 nM |
| Cc1n[nH]c2c1C(c1ccc3c(c1)OCCO3)(C1(F)CC1)C(C#N)=C(N)O2 (racemic) [Compound 4.51] | – | EC50 [3]: < 100 nM |
| Cc1n[nH]c2c1C(c1nc3c(Br)cccc3o1)(C1CCC1)C(C#N)=C(N)O2 (racemic) [Compound 4.58] | – | EC50 [3]: < 100 nM |
| Cc1n[nH]c2c1C(c1ccc3ccccc3c1)(C1(F)CC1)C(C#N)=C(N)O2 (racemic) [Compound 4.59] | – | EC50 [3]: < 100 nM |
| CCC1(CCC2CCCCC2)C(C#N)=C(N)Oc2[nH]nc(C)c21 (racemic) [Compound 4.65] | – | EC50 [3]: < 1000 nM |

| SMILES | EC50 [1] [nM] | also measured |
| --- | --- | --- |
| Cc1csc(C2(C3CC3)C(C#N)=C(N)Oc3[nH]nc(C)c32)c1 (racemic) [Compound 4.70] | – | EC50 [3]: < 1000 nM |
| COc1ccc2cc(C3(C4(F)CC4)C(C#N)=C(N)Oc4[nH]ncc43)ccc2c1 (racemic) [Compound 4.75] | – | EC50 [3]: < 1000 nM |
| Cc1n[nH]c2c1C(c1ccc3c(c1)OC(F)(F)O3)(C1(F)COC1)C(C#N)=C(N)O2 (racemic) [Compound 4.84] | – | EC50 [3]: < 10000 nM |
| CCC1(c2cccc(Oc3ccccc3)c2)C(C#N)=C(N)Oc2[nH]nc(C)c21 (centres unmarked) [Compound 2.1.] | < 100 | – |
| CCC1(c2ccc(F)cc2)C(C#N)=C(N)Oc2[nH]nc(C)c21 (centres unmarked) [Compound 2.2.] | < 10000 | – |
| CCC1(c2cccc(Br)c2)C(C#N)=C(N)Oc2[nH]nc(C)c21 (centres unmarked) [Compound 2.4.] | < 1000 | – |
| CCC1(c2ccc(NC(C)=O)cc2)C(C#N)=C(N)Oc2[nH]nc(C)c21 (centres unmarked) [Compound 2.6.] | < 10000 | – |
| CCC1(c2ccc(C(C)(C)C)cc2)C(C#N)=C(N)Oc2[nH]nc(C)c21 (centres unmarked) [Compound 2.7.] | < 10000 | – |
| CCC1(c2ccc(Oc3ccccc3)cc2)C(C#N)=C(N)Oc2[nH]nc(C)c21 (centres unmarked) [Compound 2.8.] | < 1000 | – |
| CCC1(c2ccc(F)c(Oc3ccccc3)c2)C(C#N)=C(N)Oc2[nH]nc(C)c21 (centres unmarked) [Compound 2.11.] | < 1000 | – |
| CCC1(c2cc(Cl)cc(Cl)c2)C(C#N)=C(N)Oc2[nH]nc(C)c21 (centres unmarked) [Compound 2.12.] | < 100 | – |
| CCC1(c2ccc(Cl)c(Cl)c2)C(C#N)=C(N)Oc2[nH]nc(C)c21 (centres unmarked) [Compound 2.14.] | < 100 | – |
| CCC1(c2cccc(F)c2)C(C#N)=C(N)Oc2[nH]nc(C)c21 (centres unmarked) [Compound 2.15.] | < 10000 | – |
| CCC1(c2ccc(F)c(F)c2)C(C#N)=C(N)Oc2[nH]nc(C)c21 (centres unmarked) [Compound 2.16.] | < 10000 | – |
| CCC1(c2cc(F)cc(F)c2)C(C#N)=C(N)Oc2[nH]nc(C)c21 (centres unmarked) [Compound 2.17.] | < 1000 | – |
| CCC1(c2cc(F)c(F)c(F)c2)C(C#N)=C(N)Oc2[nH]nc(C)c21 (centres unmarked) [Compound 2.18.] | < 1000 | – |
| CCC1(c2ccc(F)c(Cl)c2)C(C#N)=C(N)Oc2[nH]nc(C)c21 (centres unmarked) [Compound 2.19.] | < 100 | – |
| CCC1(c2cc(F)cc(Cl)c2)C(C#N)=C(N)Oc2[nH]nc(C)c21 (centres unmarked) [Compound 2.20.] | < 1000 | – |
| CCC1(c2ccc(OC)c(OC)c2)C(C#N)=C(N)Oc2[nH]nc(C)c21 (centres unmarked) [Compound 2.21.] | < 1000 | – |
| CCC1(c2ccc(OC)cc2)C(C#N)=C(N)Oc2[nH]nc(C)c21 (centres unmarked) [Compound 2.22.] | < 1000 | – |
| CCC1(c2ccc(Oc3ccc(C(F)(F)F)cc3Cl)c(C)c2)C(C#N)=C(N)Oc2[nH]nc(C)c21 (centres unmarked) [Compound 2.23.] | < 10000 | – |

Second part, led by results:

| EC50 [1] [nM] | SMILES | also measured |
| --- | --- | --- |
| < 100 | CCC1(c2cc(F)cc(Br)c2)C(C#N)=C(N)Oc2[nH]nc(C)c21 (racemic) [Compound 2.467] | – |
| < 100 | Cc1n[nH]c2c1C(c1cc(Cl)cc(Cl)c1)(C1(F)COC1)C(C#N)=C(N)O2 (racemic) [Compound 2.478] | – |
| < 10 | Cc1n[nH]c2c1C(c1cc(C(F)(F)F)cc(C(F)(F)F)c1)(C1(F)COC1)C(C#N)=C(N)O2 (racemic) [Compound 2.501] | – |
| < 10 | Cc1n[nH]c2c1C(c1cc(Cl)cc(OCCC(=O)O)c1)(C1CCC1)C(C#N)=C(N)O2 (racemic) [Compound 2.505] | – |
| < 10 | COC(=O)c1cc(-c2cc(Cl)cc(C3(C4CCC4)C(C#N)=C(N)Oc4[nH]nc(C)c43)c2)ccc1Cl (racemic) [Compound 2.514] | – |
| < 10 | COC(=O)c1ccc(-c2cc(C#N)cc(C3(C4CCC4)C(C#N)=C(N)Oc4[nH]nc(C)c43)c2)cc1F (racemic) [Compound 2.521] | – |
| < 10 | Cc1n[nH]c2c1C(c1cc(Cl)cc(-c3cccc(NS(C)(=O)=O)c3)c1)(C1CCC1)C(C#N)=C(N)O2 (racemic) [Compound 2.527] | – |
| < 10 | Cc1n[nH]c2c1C(c1cc(Cl)cc(-c3ccc(NS(C)(=O)=O)cc3)c1)(C1CCC1)C(C#N)=C(N)O2 (racemic) [Compound 2.528] | – |
| < 10 | CCC1(c2cc(C#N)cc(C(F)(F)F)c2)C(C#N)=C(N)Oc2[nH]nc(C)c21 (racemic) [Compound 2.530] | – |
| < 100 | Cc1n[nH]c2c1C(c1cc(C(F)(F)F)cc(C(F)(F)F)c1)(C1CC(O)C1)C(C#N)=C(N)O2 (racemic) [Compound 2.540] | – |
| < 1000 | Cc1n[nH]c2c1C(c1ccc(CC(=O)O)c(C#N)c1)(C1CCC1)C(C#N)=C(N)O2 (racemic) [Compound 2.541] | – |
